Source: patent US8969363B2, “Heterocyclic compounds and uses thereof” (Infinity Pharmaceuticals, Inc., priority 2011, dated 2015)
Where two headings read alike, the source gives them in different places.

Tests used:
Balb/c splenic B cells = experiment: B cell activation and proliferation assay (Alamar Blue); assay type: cell-based; details: Mus musculus
In short: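 Balb/c splenic B cells (Ficoll, then MACS purification; 50,000/well) were preincubated 30 min with compound at 0.2% final DMSO. They were then stimulated 72 h at 37 °C with a cocktail of 10 μg/ml LPS, or 5 μg/ml anti-mouse F(ab′)2 plus 2 ng/ml mouse IL4. Alamar Blue was read after 5 h at 560Ex/590Em, giving IC50 or EC50.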

PI3Kδ = target: T1, PI3Kδ (Homo sapiens, UniProt O00329); experiment: PI3 Kinase HTRF assay, PI3Kδ; assay type: biochemical; details: 10 μM PIP2, 10 μM ATP, read-out: PI3K δ IC50
T1 construct: purchased Millipore Corporation 14-604-K
T1 sequence (O00329 whole entry): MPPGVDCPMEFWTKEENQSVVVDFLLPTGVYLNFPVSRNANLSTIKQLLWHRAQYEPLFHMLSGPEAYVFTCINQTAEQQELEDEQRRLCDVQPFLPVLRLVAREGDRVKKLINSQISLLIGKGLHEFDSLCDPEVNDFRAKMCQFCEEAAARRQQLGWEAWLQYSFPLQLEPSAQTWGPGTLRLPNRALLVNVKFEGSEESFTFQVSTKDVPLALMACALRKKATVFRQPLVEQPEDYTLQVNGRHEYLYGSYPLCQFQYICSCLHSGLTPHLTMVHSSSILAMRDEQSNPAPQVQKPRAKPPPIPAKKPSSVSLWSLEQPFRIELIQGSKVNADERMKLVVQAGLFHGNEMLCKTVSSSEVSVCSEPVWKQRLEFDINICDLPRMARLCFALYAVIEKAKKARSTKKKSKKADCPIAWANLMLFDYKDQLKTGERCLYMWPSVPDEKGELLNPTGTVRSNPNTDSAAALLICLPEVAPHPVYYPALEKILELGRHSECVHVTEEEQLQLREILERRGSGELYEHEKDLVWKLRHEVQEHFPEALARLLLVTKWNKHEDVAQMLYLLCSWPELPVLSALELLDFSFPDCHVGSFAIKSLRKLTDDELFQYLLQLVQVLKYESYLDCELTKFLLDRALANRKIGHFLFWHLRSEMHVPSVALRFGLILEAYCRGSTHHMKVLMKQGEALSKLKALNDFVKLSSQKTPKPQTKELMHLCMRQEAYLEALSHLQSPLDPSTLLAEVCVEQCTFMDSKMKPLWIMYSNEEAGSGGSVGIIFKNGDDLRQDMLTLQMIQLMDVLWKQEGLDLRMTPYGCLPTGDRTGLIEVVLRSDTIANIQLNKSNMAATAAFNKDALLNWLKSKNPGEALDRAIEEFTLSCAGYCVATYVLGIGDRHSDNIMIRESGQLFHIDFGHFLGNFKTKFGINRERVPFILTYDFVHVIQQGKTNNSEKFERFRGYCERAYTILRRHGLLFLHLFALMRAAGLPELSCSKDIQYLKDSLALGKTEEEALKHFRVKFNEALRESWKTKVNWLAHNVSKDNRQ
T1 sequence (P27986 whole entry partner): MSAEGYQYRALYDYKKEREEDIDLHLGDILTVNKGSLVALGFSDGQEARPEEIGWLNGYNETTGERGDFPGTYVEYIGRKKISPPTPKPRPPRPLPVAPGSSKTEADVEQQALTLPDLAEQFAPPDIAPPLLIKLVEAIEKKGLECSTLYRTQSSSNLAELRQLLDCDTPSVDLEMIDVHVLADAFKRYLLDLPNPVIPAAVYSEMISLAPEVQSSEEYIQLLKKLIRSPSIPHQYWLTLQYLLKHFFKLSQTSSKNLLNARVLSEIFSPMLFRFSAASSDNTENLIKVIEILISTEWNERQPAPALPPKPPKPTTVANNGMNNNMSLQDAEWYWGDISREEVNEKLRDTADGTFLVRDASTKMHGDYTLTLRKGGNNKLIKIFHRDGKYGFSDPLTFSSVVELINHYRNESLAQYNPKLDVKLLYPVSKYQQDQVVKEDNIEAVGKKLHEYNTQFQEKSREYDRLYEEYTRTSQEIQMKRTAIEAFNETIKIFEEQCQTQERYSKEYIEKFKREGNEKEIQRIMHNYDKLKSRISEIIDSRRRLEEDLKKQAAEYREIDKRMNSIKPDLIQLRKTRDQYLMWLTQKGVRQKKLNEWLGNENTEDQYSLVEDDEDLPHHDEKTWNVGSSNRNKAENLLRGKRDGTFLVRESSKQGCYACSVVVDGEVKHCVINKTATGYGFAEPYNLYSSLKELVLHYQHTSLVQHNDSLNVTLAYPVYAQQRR
Excerpt: (§1) A PI3-Kinase HTRF® assay kit (cat No. 33-016) purchased from Millipore Corporation was used to screen compounds provided herein. This assay used specific, high affinity binding of the GRP1 pleckstrin homology (PH) domain to PIP3, the product of a Class 1A or 1B PI3 Kinase acting on its physiological substrate PIP2. During the detection phase of the assay, a complex was generated between the GST-tagged PH domain and biotinylated short chain PIP3. The biotinylated PIP3 and the GST-tagged PH domain recruited fluorophores (Streptavidin-Allophycocyanin and Europium-labeled anti-GST respectively) to form the fluorescence resonance energy transfer (FRET) architecture, generating a stable time-resolved FRET signal. The FRET complex was disrupted in a competitive manner by non-biotinylated PIP3, a product formed in the PI3 Kinase assay.
(§2) PI3 Kinase α, β, γ and δ activity was assayed using the PI3 Kinase HTRF® assay kit (catalogue No. 33-016) purchased from Millipore Corporation. Purified recombinant PI3Kα (catalogue No. 14-602-K), PI3Kβ (catalogue No. 14-603-K), PI3Kγ (catalogue No. 14-558-K) and PI3Kδ (catalogue No. 14-604-K) were obtained from Millipore Corporation. Purified recombinant PI3K enzyme was used to catalyze the phosphorylation of phosphatidylinositol 4,5-bisphosphate (PIP2 at 10 μM) to phosphatidylinositol 3,4,5-trisphosphate (PIP3) in the presence of 10 μM ATP. The assay was carried out in 384-well format and detected using a Perkin Elmer EnVision Xcite Multilabel Reader. Emission ratios were converted into percent inhibitions and imported into GraphPad Prism software. The concentration necessary to achieve inhibition of enzyme activity by 50% (IC50) was calculated using concentrations ranging from 20 μM to 0.1 nM (12-point curve). IC50 values were determined using a nonlinear regression model available in GraphPad Prism 5. […]

PI3Kα = target: T2, PI3Kα (Homo sapiens, UniProt P42336); experiment: PI3 Kinase HTRF assay, PI3Kα; assay type: biochemical; details: 10 μM PIP2, 10 μM ATP; 'Greater than 10 μM' and 'Greater than 1 μM to 10 μM'; read-out: PI3K α IC50
T2 construct: purchased Millipore Corporation 14-602-K
T2 sequence (P42336 whole entry): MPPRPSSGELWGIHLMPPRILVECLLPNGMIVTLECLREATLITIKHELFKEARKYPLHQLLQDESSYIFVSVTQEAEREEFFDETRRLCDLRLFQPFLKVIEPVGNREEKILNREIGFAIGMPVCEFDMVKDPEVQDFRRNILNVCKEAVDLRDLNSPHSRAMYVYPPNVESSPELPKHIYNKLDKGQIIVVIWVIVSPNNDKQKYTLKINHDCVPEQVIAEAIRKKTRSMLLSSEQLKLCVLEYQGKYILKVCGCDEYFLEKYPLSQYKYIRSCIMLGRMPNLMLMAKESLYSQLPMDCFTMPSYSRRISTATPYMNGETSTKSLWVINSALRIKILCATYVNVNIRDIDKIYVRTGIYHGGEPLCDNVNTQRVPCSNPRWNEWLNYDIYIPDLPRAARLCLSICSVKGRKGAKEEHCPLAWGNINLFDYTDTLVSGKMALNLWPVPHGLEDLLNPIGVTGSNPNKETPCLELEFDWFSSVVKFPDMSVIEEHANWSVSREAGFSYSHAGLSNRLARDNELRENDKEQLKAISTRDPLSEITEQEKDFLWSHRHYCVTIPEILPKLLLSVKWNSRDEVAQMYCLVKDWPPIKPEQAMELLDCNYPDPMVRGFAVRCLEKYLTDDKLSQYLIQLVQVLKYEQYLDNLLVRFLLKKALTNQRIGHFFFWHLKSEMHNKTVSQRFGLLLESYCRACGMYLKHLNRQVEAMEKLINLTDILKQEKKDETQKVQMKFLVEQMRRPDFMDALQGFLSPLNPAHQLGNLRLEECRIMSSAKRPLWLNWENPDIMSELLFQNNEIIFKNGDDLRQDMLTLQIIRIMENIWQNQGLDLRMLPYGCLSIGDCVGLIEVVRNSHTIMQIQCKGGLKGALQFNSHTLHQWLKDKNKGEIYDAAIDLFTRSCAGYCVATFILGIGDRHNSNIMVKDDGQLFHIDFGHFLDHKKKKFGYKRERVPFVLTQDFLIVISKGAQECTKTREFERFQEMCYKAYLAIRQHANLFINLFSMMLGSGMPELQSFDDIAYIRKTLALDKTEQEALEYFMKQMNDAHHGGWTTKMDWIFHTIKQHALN
T2 sequence (P27986 whole entry partner): as the sequence (P27986 whole entry partner) above
Excerpt: as §1, §2

[1] = system: phospho-AKT in RAJI cells (PI3Kδ); experiment: PI3Kδ selective cellular assay: phospho-AKT in anti-human IgM stimulated RAJI cells; assay type: cell-based; details: read-out: IC50 for phospho-AKT, RAJI cell model
Excerpt: A compound's ability in selectively inhibiting PI3Kδ can be assessed using RAJI cells, i.e., B lymphocyte cells derived from lymphoma patients. Briefly, serum-starved RAJI cells are stimulated with anti-human IgM, thereby causing signaling through the B-cell receptors, as described in, for example, He et al., Leukemia Research (2009) 33: 798-802. B-cell receptor signaling is important for the activation, differentiation, and survival of B cells and certain B-cell derived cancers. Reduction of phospho-AKT is indicative of compounds that may inhibit B-cell proliferation and function in certain diseases. By monitoring the reduction of phospho-AKT in stimulated RAJI cells (using for example, phospho-AKT antibodies), a compound's potential efficacy in selectively inhibiting PI3Kδ can be assessed.
Certain compounds provided herein (e.g., Compounds I-21, I-86, I-87, I-91, I-106, and III-13) were tested in RAJI cell model using procedures as described above.

[2] = system: phospho-AKT in 786-O cells (PI3Kβ); experiment: PI3Kβ selective cellular assay: phospho-AKT in 786-O cells; assay type: cell-based; details: Homo sapiens, 786-0, read-out: IC50 for phospho-AKT, 786-O cell model
Excerpt: A compound's ability in selectively inhibiting PI3Kβ can be assessed using 786-O cells, i.e., human kidney carcinoma cell line. Briefly, 786-O cells, in which PI3Kβ is constitutively active, can be treated with test compounds. Test compounds' ability to inhibit AKT phosphorylation in 786-O cells, therefore, is indicative of selective inhibition of PI3Kβ. Thus, by monitoring the reduction of phospho-AKT in 786-O cells (using for example, phospho-AKT antibodies), a compound's potential efficacy in selectively inhibiting PI3Kβ can be assessed.
Certain compounds provided herein (e.g., Compounds I-21, I-86, I-87, I-91, and III-13) were tested in 786-O cell model using procedures as described above.

[3] = system: phospho-AKT in SKOV-3 cells (PI3Kα); experiment: PI3Kα selective cellular assay: phospho-AKT in SKOV-3 cells; assay type: cell-based; details: Homo sapiens, SK-OV-3, read-out: IC50 for phospho-AKT, SKOV-3 cell model
Excerpt: A compound's ability in selectively inhibiting PI3Kα can be assessed using SKOV-3 cells, i.e., human ovarian carcinoma cell line. Briefly, SKOV-3 cells, in which mutant PI3Kα is constitutively active, can be treated with test compounds. Test compounds' ability to inhibit AKT phosphorylation in SKOV-3 cells, therefore, is indicative of selective inhibition of PI3Kα. Thus, by monitoring the reduction of phospho-AKT in SKOV-3 cells (using for example, phospho-AKT antibodies), a compound's potential efficacy in selectively inhibiting PI3Kα can be assessed.
Certain compounds provided herein (e.g., Compounds I-21, I-86, I-87, I-91, and III-13) were tested in SKOV-3 cell model using procedures as described above.

PI3Kβ = experiment: PI3 Kinase HTRF assay, PI3Kβ; assay type: biochemical, human; details: 10 μM PIP2, 10 μM ATP; 'Greater than 10 μM' and 'Greater than 1 μM to 10 μM'; read-out: PI3K β IC50
Chain of PI3Kβ (Q8BTI9 whole entry, the tested form may be a part): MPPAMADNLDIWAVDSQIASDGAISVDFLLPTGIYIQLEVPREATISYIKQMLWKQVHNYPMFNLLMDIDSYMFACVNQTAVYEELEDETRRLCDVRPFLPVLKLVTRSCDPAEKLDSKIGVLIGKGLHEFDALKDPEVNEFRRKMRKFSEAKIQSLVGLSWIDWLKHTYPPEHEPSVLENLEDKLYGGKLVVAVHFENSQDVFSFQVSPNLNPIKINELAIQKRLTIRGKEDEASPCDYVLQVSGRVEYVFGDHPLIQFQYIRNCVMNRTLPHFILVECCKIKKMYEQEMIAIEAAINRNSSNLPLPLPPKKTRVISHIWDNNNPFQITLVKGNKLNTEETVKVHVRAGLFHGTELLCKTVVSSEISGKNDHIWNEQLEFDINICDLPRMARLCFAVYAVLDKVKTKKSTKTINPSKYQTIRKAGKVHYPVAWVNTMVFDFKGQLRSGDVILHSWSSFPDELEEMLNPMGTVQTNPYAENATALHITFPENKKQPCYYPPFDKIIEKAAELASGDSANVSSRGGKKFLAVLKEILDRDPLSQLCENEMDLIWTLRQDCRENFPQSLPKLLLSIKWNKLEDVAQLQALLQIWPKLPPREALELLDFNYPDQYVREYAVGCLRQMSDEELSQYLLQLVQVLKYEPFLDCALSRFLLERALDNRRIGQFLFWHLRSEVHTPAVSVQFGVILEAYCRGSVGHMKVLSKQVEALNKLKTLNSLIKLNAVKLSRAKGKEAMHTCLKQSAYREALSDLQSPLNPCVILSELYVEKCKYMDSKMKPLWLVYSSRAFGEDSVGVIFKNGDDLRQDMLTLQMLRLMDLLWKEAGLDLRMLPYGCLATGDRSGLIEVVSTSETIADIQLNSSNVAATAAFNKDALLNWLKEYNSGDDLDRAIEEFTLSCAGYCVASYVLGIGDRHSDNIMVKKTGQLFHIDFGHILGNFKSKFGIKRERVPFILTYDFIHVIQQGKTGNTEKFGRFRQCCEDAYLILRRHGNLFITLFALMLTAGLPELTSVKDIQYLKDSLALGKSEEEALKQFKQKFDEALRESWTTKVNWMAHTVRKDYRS
In short: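 Recombinant PI3Kβ converting PIP2 (10 μM) to PIP3 with 10 μM ATP; PIP3 detected by competitive HTRF displacement of biotin-PIP3/GST-GRP1 PH domain complex. Emission ratios converted to % inhibition; IC50 by nonlinear regression.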

[4] = system: phospho-AKT in RAW 264.7 cells (PI3Kγ); experiment: PI3Kγ selective cellular assay: phospho-AKT in C5a stimulated RAW 264.7 cells; assay type: cell-based; details: Mus musculus, RAW264.7, range with units in value, read-out: IC50 for phospho-AKT, RAW 264.7 cell model
Excerpt: A compound's ability in selectively inhibiting PI3Kγ can be assessed using RAW264.7 macrophages. Briefly, serum-starved PAW264.7 cells are stimulated with a known GPCR agonist C5a. (See, e.g., Camps et al., Nature Medicine (2005) 11(9): 936-943). Cells can be treated with test compounds prior to, simultaneously with, or subsequent to the stimulation by C5a. RAW 264.7 cells respond to the complement component fragment C5a through activation of the C5a receptor, and the C5a receptor activates macrophages and induces cell migration. Test compounds' ability to inhibit C5a-mediated AKT phosphorylation is indicative of selective inhibition of PI3Kγ. Thus, by monitoring the reduction of phospho-AKT in stimulated RAW 264.7 cells (using for example, phospho-AKT antibodies), a compound's potential efficacy in selectively inhibiting PI3Kγ can be assessed.
Certain compounds provided herein (e.g., Compounds I-21, I-86, I-87, I-91, I-106, and III-13) were tested in RAW 264.7 cell model using procedures as described above.

PI3Kγ = target: T3, PI3Kγ (Homo sapiens, UniProt P48736); experiment: PI3 Kinase HTRF assay, PI3Kγ; assay type: biochemical; details: 10 μM PIP2, 10 μM ATP; 'Greater than 10 μM' and 'Greater than 1 μM to 10 μM'; read-out: PI3K γ IC50
T3 construct: purchased Millipore Corporation 14-558-K
T3 sequence (P48736 whole entry): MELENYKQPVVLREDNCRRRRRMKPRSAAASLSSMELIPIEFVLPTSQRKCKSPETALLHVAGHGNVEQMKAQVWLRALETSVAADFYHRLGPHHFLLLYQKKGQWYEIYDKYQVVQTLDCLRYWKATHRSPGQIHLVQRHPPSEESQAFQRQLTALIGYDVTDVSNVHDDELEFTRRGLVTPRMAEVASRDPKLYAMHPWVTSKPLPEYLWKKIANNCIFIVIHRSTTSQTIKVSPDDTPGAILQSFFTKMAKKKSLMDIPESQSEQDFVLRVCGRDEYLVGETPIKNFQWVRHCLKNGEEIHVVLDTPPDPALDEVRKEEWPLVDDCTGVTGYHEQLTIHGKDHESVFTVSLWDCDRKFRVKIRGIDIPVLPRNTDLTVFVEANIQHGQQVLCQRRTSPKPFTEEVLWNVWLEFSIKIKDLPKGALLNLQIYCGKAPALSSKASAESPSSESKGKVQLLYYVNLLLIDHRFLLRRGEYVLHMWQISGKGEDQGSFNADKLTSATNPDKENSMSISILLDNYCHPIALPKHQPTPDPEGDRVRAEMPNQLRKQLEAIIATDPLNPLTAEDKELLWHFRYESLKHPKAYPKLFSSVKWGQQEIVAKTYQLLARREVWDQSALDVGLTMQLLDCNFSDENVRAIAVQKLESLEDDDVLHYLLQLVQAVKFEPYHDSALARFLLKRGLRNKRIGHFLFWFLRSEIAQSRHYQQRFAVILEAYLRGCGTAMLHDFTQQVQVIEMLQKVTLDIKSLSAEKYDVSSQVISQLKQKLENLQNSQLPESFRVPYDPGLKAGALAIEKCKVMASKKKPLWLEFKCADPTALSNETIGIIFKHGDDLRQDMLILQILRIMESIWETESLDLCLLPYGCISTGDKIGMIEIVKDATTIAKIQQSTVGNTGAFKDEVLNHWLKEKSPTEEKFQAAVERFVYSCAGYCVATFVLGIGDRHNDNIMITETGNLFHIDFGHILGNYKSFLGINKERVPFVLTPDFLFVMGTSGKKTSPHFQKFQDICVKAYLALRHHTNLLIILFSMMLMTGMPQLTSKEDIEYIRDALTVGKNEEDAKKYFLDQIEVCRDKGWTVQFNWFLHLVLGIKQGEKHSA
Excerpt: as §1, §2

[5] = 'Greater than 10 μM' and 'Greater than 1 μM to 10 μM'
[6] = column 'Greater than 1 μM to 10 μM'

Row | SMILES | IC50 (PI3Kβ) [µM] | IC50 (PI3Kδ; [5]) [µM] | IC50 (PI3Kγ) [µM] | other results
1 | C[C@H](Nc1ncnc2cccnc12)c1cc2c(F)ccc(Cl)c2c(=O)n1-c1ccccc1 [Compound I-14] | – | – | – | EC50 (Balb/c splenic B cells; 'Less than 100 nM'): < 0.1 µM; IC50 (PI3Kδ; 'Less than 100 nM'): < 0.1 µM
2 | C[C@H](Nc1ncnc2cccnc12)c1cc2cccc(-c3cnn(C)c3)c2c(=O)n1-c1ccccc1 [Compound I-21] | > 10 | – | – | IC50 (PI3Kα): 1 to 10 µM; EC50 (Balb/c splenic B cells; 'Less than 100 nM'): < 0.1 µM; IC50 [1]: < 0.1 µM; IC50 [2]: 1 to 10 µM; IC50 [3]: 1 to 10 µM; IC50 [4]: 0.1 to 1 µM
3 | C[C@H](Nc1ncnc2cccnc12)c1cc2scc(-c3cnn(C)c3)c2c(=O)n1-c1ccccc1 [Compound I-30] | > 10 | 1 to 10 | – | –
4 | C[C@H](Nc1ncnc2cccnc12)c1cc2cccc(-c3cnn(C)c3)c2c(=O)n1C [Compound I-46] | > 10 | 1 to 10 | 1 to 10 | –
5 | C[C@H](Nc1nc(Cl)nc2cccnc12)c1cc2cccc(Cl)c2c(=O)n1-c1ccccc1 [Compound I-52] | > 10 | 1 to 10 | – | EC50 (Balb/c splenic B cells; 1 μM to 100 nM): 0.1 to 1 µM
6 | Cc1ccnc2cc(C(C)Nc3ncnc4cccnc34)[nH]c(=O)c12 (stereo not drawn) [Compound I-68, 4-methyl-7-(1-(pyrido[3,2-d]pyrimidin-4-ylamino)ethyl)-1,6-naphthyridin-5(6H)-one] | > 10 | 1 to 10 | – | –
7 | COc1ncc(-c2cccc3cc([C@H](C)Nc4cc(O)nc5cccnc45)n(-c4ccccc4)c(=O)c23)cn1 [Compound I-99] | > 10 | 1 to 10 | – | EC50 (Balb/c splenic B cells; [6]): 1 to 10 µM
8 | C[C@H](Nc1cc(O)nc2cccnc12)c1cc2cccc(Cl)c2c(=O)n1-c1ccccc1 [Compound I-100] | > 10 | 1 to 10 | 1 to 10 | EC50 (Balb/c splenic B cells; [6]): 1 to 10 µM
9 | C[C@H](Nc1nc(N)nc2cccnc12)c1cc2cccc(N(C)C)c2c(=O)n1-c1ccccc1 [Compound I-102] | > 10 | 1 to 10 | – | –
10 | CC(C)n1c([C@H](C)Nc2ncnc3cccnc23)cc2cccc(-c3ccc(=O)n(C)c3)c2c1=O [Compound I-106] | 1 to 10 | – | 1 to 10 | IC50 (PI3Kα): 1 to 10 µM; IC50 [1]: < 0.1 µM; IC50 [4]: 0.1 to 1 µM

Second part, led by results:

Row | IC50 (PI3Kβ) [µM] | IC50 (PI3Kδ; [5]) [µM] | IC50 (PI3Kγ) [µM] | SMILES | other results
11 | > 10 | 1 to 10 | 1 to 10 | C[C@H](Nc1cc(Cl)nn2ccnc12)c1cc2cccc(-c3cnn(C)c3)c2c(=O)n1C1CC1 [II-13] | –
12 | 1 to 10 | 1 to 10 | – | C[C@H](Nc1ccnc2ccnn12)c1cc2cccc(Cl)c2c(=O)n1CCN1CCCC1 [II-28] | –
13 | 1 to 10 | 1 to 10 | – | C[C@H](Nc1ccnn2ccnc12)c1cc2cccc(Cl)c2c(=O)n1CCN1CCCC1 [II-29] | –
14 | > 10 | 1 to 10 | 1 to 10 | Cc1cn2nccc(N[C@@H](C)c3cc4cccc(Cl)c4c(=O)n3-c3cccc(F)c3)c2n1 [II-31] | –
15 | > 10 | 1 to 10 | 1 to 10 | Cc1cn2nccc(N[C@@H](C)c3cc4cccc(Cl)c4c(=O)n3-c3ccccc3)c2n1 [II-32] | –
16 | > 10 | 1 to 10 | 1 to 10 | Cc1cn2nccc(N[C@@H](C)c3cc4cccc(-c5cnn(C)c5)c4c(=O)n3-c3ccccc3)c2n1 [II-33] | –
17 | > 10 | 1 to 10 | – | C[C@H](Nc1nc(Cl)nc2cccnc12)c1cc2cccc(C(F)(F)F)c2c(=O)n1-c1ccccc1 [III-22] | –
18 | > 10 | 1 to 10 | – | C[C@H](Nc1ncnn2cncc12)c1cc2cccc(C(F)(F)F)c2c(=O)n1-c1ccccc1 [III-28] | –
19 | > 10 | > 10 | > 10 | C[C@@H](Nc1ncnc2cc(F)ccc12)c1cc2cccc(Cl)c2c(=O)n1-c1ccccc1 [IV-1] | IC50 (PI3Kα): > 10 µM
20 | > 10 | > 10 | > 10 | C[C@@H](Nc1ncnc2cc(F)c(F)cc12)c1cc2cccc(Cl)c2c(=O)n1-c1ccccc1 [IV-3] | IC50 (PI3Kα): > 10 µM
21 | > 10 | 1 to 10 | – | C[C@H](Nc1ncc2[nH]cnc2n1)c1cc2cccc(Cl)c2c(=O)n1-c1ccccc1 [IV-7] | –
22 | > 10 | 1 to 10 | – | C[C@H](NCc1cnc2cccnn12)c1cc2cccc(Cl)c2c(=O)n1-c1ccccc1 [IV-9, (S)-8-chloro-3-(1-(imidazo[1,2-b]pyridazin-3-ylmethylamino)ethyl)-2-phenylisoquinolin-1(2H)-one] | –
23 | > 10 | 1 to 10 | – | C[C@H](Nc1ncnn2cncc12)c1cc2cccc(Cl)c2c(=O)n1-c1cccc(F)c1 [IV-14] | –
24 | > 10 | 1 to 10 | – | C[C@H](Nc1nc(Cl)nc2nc(Cl)cnc12)c1cc2cccc(Cl)c2c(=O)n1-c1ccccc1 [IV-19] | –
25 | > 10 | 1 to 10 | 1 to 10 | C[C@H](Nc1nc(Cl)nc2nccnc12)c1cc2cccc(Cl)c2c(=O)n1-c1ccccc1 [IV-20] | –
